Measured values from patent US8881823B2, “Environmentally friendly low temperature breaker systems and related methods” (Halliburton Energy Services, Inc., priority 2011, dated 2014).
Where two headings read alike, the source gives them in different places. Each block holds one compound with its values, some of them ahead of it.

Assays:
[1] = Initial and over time miscibility and pH in potassium formate brines; format: physicochemical; conditions: for After Static Aging: overnight 150° F.; for pH Final: static 16 hrs @ 150° F.
Protocol: Completion breaker solutions were to be tested at 5%, 10%, and 20% by volume concentrations in each of the brines. The initial miscibility and the miscibility after static aging overnight at 150° F. were observed. Also, the pH of the final mixes was measured. The different concentrations of the breaker solutions were prepared with fresh water and filtered through a 1.6 μm glass fiber filter prior to testing.
The tests were run by adding the appropriate volume of the test breaker (5%, 10%, or 20% by volume) to the volume of the test brine needed to total 100 ml in a 4 ounce jar, sealing it, and swirling to mix the components. Observation was noted of the compatibility of the components.

[2] = Miscibility and pH of breaker systems in fresh water; format: physicochemical; conditions: breaker system in fresh water, 150° F. for 16 hours
Protocol: Several chelating agents and acids (breaker systems) were tested for their calcium carbonate dissolving capacity and miscibility in fresh water. Tests of the breaker systems were performed by adding a known volume of breaker system to a volume of brine needed to fill 100 ml in a jar. The jars were then sealed and swirled to mix the components. Samples containing 5%, 10%, or 20% v/v of chelating agents and acids were prepared. The jars were then placed in a static oven at 150° F. for 16 hours. Afterwards, miscibility of the components was observed and the pH of each mixture was tabulated.

[3] = Calcite dissolving capacity of breaker systems; format: physicochemical; conditions: 2.5 g BARACARB 5 in 50 mL test fluid, one hour
Protocol: The calcite dissolving capacity of each breaker system was determined in the following manner. A known amount of a technical grade calcium carbonate (commercially available from Halliburton under the tradename “BARACARB 5”) was dried in an oven for 2 hours. […] The solution was subsequently filtered with a 1 micron fiber glass filter paper.

[4] = Chemical oxygen demand (COD) test; format: physicochemical
From the text: Table 2 compares the biodegradability of GLDA and EDTA and summarizes chemical oxygen demand (COD) tests which indirectly measures the amount of organic compounds in water.

[5] = Compatibility and dissolution ability in potassium formate brine; format: physicochemical
Protocol: In this Example, the compatibility and dissolution ability of various breaker systems with formate brine were evaluated. […] For each sample a 20% v/v breaker sample was prepared in three different concentrations of potassium formate brine (11 ppg, 12 ppg, and 13 ppg).
To determine the compatibility of each breaker with the potassium formate brine, each sample was checked for the formation of formate salts. This precipitation was indicative of an incompatibility of the breaker system with the formate brine. Samples in which precipitation was observed are noted with an asterisk (*).
The dissolution ability of the breaker systems was also tested in the various concentration of formate brine. […] The jars were then dried in an 90° F. oven for 16 hours. After the elapsed time, the amount of carbonate that remained was weighed and tabulated. The difference in weight represented the amount of carbonate that was dissolved by the breaker system and/or precipitated out as a result of being incompatible with the formate brine.

[6] = Biodegradability, OECD 301 D Closed Bottle Test
From the text: The same protocol was used to test EDTA (“DISSOLVINE AM3-40” available from AkzoNobel Corporate) and sodium acetate.

[7] = 5% by volume, potassium formate brine 11.0 lb/gal
[8] = 5% by volume, potassium formate brine 12.0 lb/gal
[9] = 5% by volume, potassium formate brine 13.0 lb/gal
[10] = 10% by volume, potassium formate brine 11.0 lb/gal
[11] = 10% by volume, potassium formate brine 12.0 lb/gal
[12] = 10% by volume, potassium formate brine 13.0 lb/gal
[13] = 15% (so in the source), potassium formate brine 13.0 lb/gal
[14] = 20% by volume, potassium formate brine 11.0 lb/gal
[15] = 20% by volume, potassium formate brine 12.0 lb/gal

SMILES: O=C(O)CN(CCOCCOCCN(CC(=O)O)CC(=O)O)CC(=O)O [EGTA]
pH [2]: 11
% Carbonate Complexed or Dissolved [3]: 9.28%
Final Weight of BARACARB 5, g [3]: 2.32 g

SMILES: O=C(O)CN(CCO)CCN(CC(=O)O)CC(=O)O [HEDTA]
biodegradability (in words) [6]: do not meet this standard

SMILES: O=C([O-])CC(NC(CC(=O)[O-])C(=O)[O-])C(=O)[O-].[Na+].[Na+].[Na+].[Na+] (stereo not drawn) [Iminodisuccinate, sodium salt]
pH [2]: 11.3
% Carbonate Complexed or Dissolved [3]: 5.2%
Final Weight of BARACARB 5, g [3]: 2.37 g

SMILES: Cl.NC(N)=O [Synthetic acid (HCl salt of urea), HCl salt of urea]
After Static Aging [1, 7]: Slight haze
pH Final [1, 7]: 9.9
Initial Observation [1, 8]: Clear, totally soluble
After Static Aging [1, 8]: Very slight separation
pH Final [1, 8]: 11.4
After Static Aging [1, 9]: Hazy
pH Final [1, 9]: 12.2
pH Final [1, 10]: 7.0
pH Final [1, 11]: 9.4
pH Final [1, 12]: 11.0
pH Final [1, 14]: 6.0
pH Final [1, 15]: 7.0
pH Final ([1]; 20% by volume, potassium formate brine 13.0 lb/gal): 7.5
solubility / miscibility in the potassium formate brines ([1]; tested concentrations, 11.0-13.0 lb/gal brines): not soluble in the brines, but dispersed evenly
pH [2]: 0.88

SMILES: CC(=O)[O-].[Na+] [sodium acetate]
biodegradability (in words) ([6]; OECD 301D protocol): readily biodegradable

More lines, main results first:

Initial Observation [1, 7]: Clear, totally soluble
After Static Aging [1, 7]: Clear, totally soluble †
pH Final [1, 7]: 9.6
Initial Observation [1, 8]: Clear, totally soluble
After Static Aging [1, 8]: Clear, totally soluble †
pH Final [1, 8]: 10.8
Initial Observation [1, 9]: Clear, totally soluble
After Static Aging [1, 9]: Clear, totally soluble †
pH Final [1, 9]: 11.4
Initial Observation [1, 10]: Clear, totally soluble
After Static Aging [1, 10]: Clear, totally soluble †
pH Final [1, 10]: 8.6
Initial Observation [1, 11]: Clear, totally soluble
After Static Aging [1, 11]: Clear, totally soluble †
pH Final [1, 11]: 9.8
Initial Observation [1, 12]: Clear, totally soluble
After Static Aging [1, 12]: Clear, totally soluble †
pH Final [1, 12]: 10.7
Initial Observation [1, 13]: Clear, totally soluble
After Static Aging [1, 13]: Clear, totally soluble †
pH Final [1, 13]: 9.9
Initial Observation [1, 14]: Clear, totally soluble
After Static Aging [1, 14]: Clear, totally soluble †
pH Final [1, 14]: 7.0
Initial Observation [1, 15]: Clear, totally soluble
After Static Aging [1, 15]: Clear, totally soluble †
pH Final [1, 15]: 8.0
pH [2]: 4.77
% Carbonate Complexed or Dissolved [3]: 38.4%
Final Weight of BARACARB 5, g [3]: 1.54 g
SMILES: N.N.O=C(O)CN(CCN(CC(=O)O)CC(=O)O)CC(=O)O [EDTA ammonium salt, reference compound]

COD [4]: ~315 mg/g
% Dissolved or precipitated out ([5]; 20% v/v breaker, 11 ppg Potassium Formate): 92%
Amount of carbonate remaining ([5]; 20% v/v breaker, 11 ppg Potassium Formate, 2.5 g calcium carbonate, 16 hours, * = precipitation of formate salts): 0.21 g
% Dissolved or precipitated out ([5]; 20% v/v breaker, 12 ppg Potassium Formate): 89%
Amount of carbonate remaining, g ([5]; 20% v/v breaker, 12 ppg Potassium Formate, 2.5 g calcium carbonate, 16 hours, * = precipitation of formate salts): 0.28* g
% Dissolved or precipitated out ([5]; 20% v/v breaker, 13 ppg Potassium Formate): 56%
Amount of carbonate remaining, g ([5]; 20% v/v breaker, 13 ppg Potassium Formate, 2.5 g calcium carbonate, 16 hours, * = precipitation of formate salts): 1.10* g
biodegradability (in words) ([6]; OECD 301D protocol): do not meet this standard
Biodegradability ([6]; Table 2): Difficult
SMILES: O=C(O)CN(CCN(CC(=O)O)CC(=O)O)CC(=O)O [EDTA, reference compound]
compatibility with the formate brine ([5]; 20% v/v breaker, 11, 12 and 13 ppg potassium formate, precipitation of formate salts = incompatible): only compatible with the formate brine at the lowest tested concentration
